{"source": "patent EP1566447A1", "about": "“Glimepiride- and insulin-induced glycosylphosphatidylinositol-specific phospholipase C regulation” (priority 2004, dated 2005)", "key": {"rat adipocytes": {"tested_on": "rat adipocytes", "test": "isoproterenol-induced lipolysis measured as release of NBD-FA", "assay_type": "cell-based", "conditions": "Rattus norvegicus, Adipocyte, given as 'up to', read-out: impairment of insulin inhibition of NBD-FA release", "procedure": "Electroporation was performed as described in \"Müller, G. et al., (2000) Mol. Cell. Biol. 20: 4708-4723\". Lipolysis was determined as release of glycerol or fluorescent NBD-FA from prelabeled and isoproterenol-stimulated adipocytes as described in \"Müller, G. et al., (2003) Biochimie 85: 1245-1256\". Gce1 was detected by photolabeling of solubilized plasma membranes or hc/IcDIGs (10-50 µg protein) with 8-N3-[^32P]cAMP and subsequent phosphorimaging as described in \"Müller, G. et al., (1994) Biochemistry 33: 12149-12159\". 5'-Nuc, aP and AChE activities were measured according to \"Eliakim, R. et al., (1990) Biochim. Biophys. Acta […]\". Protein was determined using the BCA protein determination kit from Pierce (Rockford, IL) and BSA as calibration standard. SDS-PAGE was performed using precast gels (Novex, San Diego, CA; 10 % Bis-Tris resolving gel, morpholinopropanesulfonic acid-SDS running buffer). Lumiimages were evaluated on a Lumilmager using Lumilmager software (Roche Diagnostics). Phosphor- and fluorescence images were processed and quantified using the Storm 860 Phosphorlmager system (Molecular Dynamics, Gelsenkirchen, Germany). Figures were constructed using the Adobe Photoshop software (Adobe Systems, Mountain View, CA). […]"}, "lipoprotein lipase (LPL)": {"target": "T1, lipoprotein lipase (LPL) (Bos taurus, UniProt P11151)", "T1 construct": "purchased Sigma/Aldrich (Deisenhofen, Germany); host or cells: bovine milk", "T1 sequence (P11151 29-478)": "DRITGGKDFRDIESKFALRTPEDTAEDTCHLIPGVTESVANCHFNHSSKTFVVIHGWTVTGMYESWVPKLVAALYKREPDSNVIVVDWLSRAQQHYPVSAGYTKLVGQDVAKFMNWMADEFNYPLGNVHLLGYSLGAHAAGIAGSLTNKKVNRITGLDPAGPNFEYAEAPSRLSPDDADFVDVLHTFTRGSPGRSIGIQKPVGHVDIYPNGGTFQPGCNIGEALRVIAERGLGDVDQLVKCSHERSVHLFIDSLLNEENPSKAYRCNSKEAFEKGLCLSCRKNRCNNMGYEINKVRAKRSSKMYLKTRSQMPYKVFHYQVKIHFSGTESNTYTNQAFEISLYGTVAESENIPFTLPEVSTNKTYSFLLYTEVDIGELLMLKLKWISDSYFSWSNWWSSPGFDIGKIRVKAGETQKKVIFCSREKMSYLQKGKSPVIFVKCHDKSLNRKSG", "test": "selectivity: lipoprotein lipase assay", "assay_type": "biochemical, bovine", "conditions": "50 µM", "procedure": "Hormone-sensitive lipase (HSL) and lipoprotein lipase (LPL) were measured using a radiolabeled triolein droplet emulsion as described in \"Vertesy et al., (2002) Journal Antibiotics 55:480-494\". Pancreatic lipase (PL) was determined by incubation of 0.25 mmol tributyrin in 2 ml of 5 mM Tris/HCl (pH 6.5), 6 mM sodium taurodeoxycholate, 150 mM NaCl, 1 mM CaCl2 with porcine PL and colipase in the same buffer using a recording pH stat (stirring at 1000 rpm at 25°C) with the pH adjusted to 6.5. PC-PLC was assayed by incubation of 0.2 ml of 10 mM dipalmitoyllecithin, 0.1 ml of 10 mM SDC and 0.1 ml of 0.03 M CaCl2 with bacterial PC-PLC (in 50 mM Tris/HCl, pH 7.5, 0.1 % BSA) for 10 min at 37°C. The reaction was terminated by addition of 0.1 ml of 50 % TCA and subsequently of 2.5 ml of […]. After centrifugation (1500xg, 15 min), 0.2-ml portions of the upper methanol/water phase (~ 1.33 ml) was removed, supplemented with 0.5 ml of 60 % HClO4, then heated at 170°C for 1 h and finally analyzed for inorganic phosphate. Mammalian PI-PLC was measured by incubation of 0.1 ml of 10 mM PI, 0.1 ml of 0.8 % sodium deoxycholate, 0.1 % BSA, 0.2 ml of 100 mM sodium borate (pH 7.5) and rat liver PI-PLC for 20 min at 37°C. The reaction was terminated and further processed as described for the PC-PLC. […] Radioactive phosphatidic acid was detected by phosphorimaging. […]"}}}
{"smiles": "CCCCCCCCCCCCP1(=O)O[C@@H]2[C@H](O)[C@@H](O)[C@H](O)[C@@H](O)[C@@H]2O1", "note": "(mixture of isomers) [GPI-2350, myo-inositol-1,2-cyclo-dodecylphosphonic acid]", "values": [{"measurement": "inhibition at 50 µM", "setting": "rat adipocytes", "result": "25 to 30", "unit": "%"}, {"measurement": "effect on lipase activity", "setting": "lipoprotein lipase (LPL)", "result": "not significantly affected"}]}
